Reference: patent publication EP4029501A1, “COMBINATION OF POLYAROMATIC UREA DERIVATIVES AND GLUCOCORTICOID OR HDAC INHIBITOR FOR THE TREATMENT OF DISEASES OR CONDITIONS ASSOCIATED WITH MUSCLE CELLS AND/OR SATELLITE CELLS” (Anagenesis Biotechnologies, priority 2021, dated 2022)
Read-outs that look alike come from different tables or passages of the source. Each block holds one molecule with its values, some of them ahead of it.

How the values were obtained:
Type in all cases: cell-based, human
[1] = tested on: muscle progenitors derived from DMD hiPSC; experiment: Myotube assay: total myotube area per well (alpha-actinin staining); conditions: for EC50 / Emax: Homo sapiens, Myotube
Summary of the method: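 DMD hiPSC-derived muscle progenitors (NCRM-1 background) plated at 3500 cells/well in K5 medium with 5 µM Y-27632, then exposed to compound at 1.5 nM–30 µM for 3 days at 37°C. Cells fixed on day 7, alpha-actinin-immunostained and total myotube area per well quantified; duplicates averaged, EC50 and normalized myotube area derived.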

Pax7-positive cells = experiment: Myotube assay: Pax7-positive (satellite-like) cell quantification; set-up: key to Pax7: (-) : Depletes the pool of cells, while positively affects the myotubes; (+) : Maintains or increases the pool of cells, with at least 1 of the highest concentration known to be cytotoxic; (++) Maintains or increases the pool of cells, without any toxicity; conditions: for Pax7: comparative compounds, effect on pool of Pax7-positive cells
Excerpt: The efficacy of said compound for use in treating, ameliorating, delaying, curing and/or preventing a disease or condition associated with muscle cells and/or satellite cells is positively correlated with the generation of myotubes (i.e. the increase of the area occupied by myotubes on the assay) and/or satellite cells (i.e. the increase of the number of satellite cells) in the assay after adding said compound. The generation of myotubes by the addition of said compound is expressed as the EC50 value, the concentration of said compound that corresponds with the half-maximal generation of myotubes, and the MA (normalized myotube area) value, the normalized area occupied by generated myotubes on the assay. […] Since muscle cells are formed from myotubes during myogenesis, the generation of myotubes in the assay is a good indicator of the ability of said compound to induce the formation of functional muscle cells in vivo. The number of satellite cells is measured as the percentage of Pax7 positive cells, relative to the total number of cells in the assay, as shown in Figure 3. The percentage of Pax7 is a good indicator of the ability of said compound to induce the formation of satellite cells which are able to play a role in muscle repair and regeneration in vivo.
DMD human induced pluripotent stem cells (hereafter "DMD hiPSC"), generated from the NCRM-1 hiPSC WT cell line by gene editing, or WT human induced pluripotent stem cells (hereafter "WT hiPSC"), being NCRM-1 hiPSC wt cell line, have been differentiated according to Chal et al. 2015, 2016, to produce muscle progenitors (hereafter "hMP"). The hMP population contains satellite-like cells (i.e Pax7-positive cells) and satellite cells' progenies (i.e. Myogenin-positive cells).
(§1) Figure 1 provides an example of a Myotube assay workflow. At day 0, hMP are thawed and 3.1 million cells are plated into a T75-flask coated with hESC-qualified Matrigel™ (Corning) in SkGM proliferating medium (PromoCells), supplemented with 5 µM Y-27632 (Tocris Bioscience). On day 2, SkGM proliferating medium is refreshed. On day 4, hMP are harvested and transferred into a 384-well plate coated with collagen type I at a density of 3500 cells/well in a DMEM-based medium, containing 5% of knockout serum replacement (Gibco), 1% PenStrep (Gibco), 1% MEM NEAA (Gibco) and 0.1 mM 2-mercaptoethanol (Gibco) (hereafter "K5 medium") and 5 µM Y-27632. Compounds to be tested are then added in the medium and incubated for 3 days at 37°C. On day 7, cells are fixed and immunostained. For example, myotubes (alpha-actinin staining) and satellite-like (Pax7 staining) cells can be analyzed for total myotube area per well or Pax7-positive cell quantification.
DMD hMP were put in the Myotube assay according to the workflow described in Example 2.1. In particular, compound (i) was added at concentrations ranging from 1.5 nM to 30 µM, starting from day 4. hMP were cultivated for three more days in presence of compound (i), then fixed and analyzed for percentage of Pax7-positive cells and nuclei number. Duplicates of each condition were averaged.
(-) : Depletes the pool of cells, while positively affects the myotubes; (+) : Maintains or increases the pool of cells, with at least 1 of the highest concentration known to be cytotoxic; and (++) Maintains or increases the pool of cells, without any toxicity.

Pax7 positive cells = experiment: Dose response assay of combination treatments with Givinostat or Prednisolone: percentage of Pax7-positive cells
Excerpt: (§2) • Figure 1 - the workflow of the myotube assay, aiming at monitoring myogenic activity of compounds and effect on satellite-like cells. • Figure 2 - the myogenic activity of compound (i) in a dose-response assay, as shown by an increase of the total myotube surface/well upon increase of compound concentration. • Figure 3 - the positive effect on satellite-like cells of compound (i) in a dose-response assay, as shown by the increase of Pax7-positive cell percentage upon increase of compound concentration. • Figure 4 - representative images for the dose-response of the total myotube area readout for compound (i), corresponding to Figure 2. • Figure 5 - representative images for the dose-response of the percentage of Pax7-positive cell readout for compound (i), corresponding to Figure 3. • Figure 6 - Dose-response curve on muscle progenitors derived from DMD hiPSC. Treatment of muscle progenitors derived from DMD hiPSC with Prednisolone or Givinostat alone inducing a beneficial effect on α-actinin expression (representative of the myotube surface) and a loss of nearly 50 % of Pax7 positive cells (representative of the population of satellite cells) in a dose-dependent manner. The highest concentration represented is 10 µM. The arrows show the point a 0.3 µM. Efficacy values correspond to the highest score of normalized myotube surface (y-axis). Activity values correspond to the half maximal effective concentration (EC50; x-axis). The curve fits were calculated using a 4-parameter logistic regression model (Graphpad PRISM software). Error bars show standard deviation (SD). The picture on the right panel is representative of the highest myotube surface value of the dose-response curve. • Figures 7-9 - Dose-response curve on muscle progenitors derived from DMD hiPSC. Treatment in a dose-dependent manner of muscle progenitors derived from DMD hiPSC with indicated compound alone or with combination with Prednisolone or Givinostat at 0.3 µM. The combination induced an improvement of myogenic capabilities seen with α-actinin expression (representative of the myotube surface) and harbor no worsening of the Pax7 positive cells (representative of the population of satellite cells) compared to Prednisolone or Givinostat alone. The highest concentration of DRC is 10 µM.
as §1
DMD hMPs were put in the Myotube assay according to the workflow described in example 2.1. In particular, Prednisolone (Sigma) or Givinostat (Exclusive Chemistry) were added in all conditions at a fixed concentration equal to 0.3 µM in combination with compounds az or bw or q tested in DRC at 8 concentrations ranging from 4.5 nM to 10 µM, starting from day 4. Also, as control, DRCs with the same range of concentrations were done with Prednisolone alone, Givinostat (figure 6) alone or compounds az or bw or q alone (figures 7 to 9). […]

[2] = tested on: muscle progenitors derived from DMD hiPSC; experiment: Dose response assay of combination treatments with Givinostat or Prednisolone: total myotube area; conditions: for potency: change in words; for improvement of potency: versus alone
Excerpt: as §2
Efficacy values correspond to the highest score of normalized myotube surface (y-axis). Activity values correspond to the half maximal effective concentration (EC50; x-axis). The curve fits were calculated using a 4-parameter logistic regression model (Graphpad PRISM software). Error bars show standard deviation (SD). The picture on the right panel is representative of the highest myotube surface value of the dose-response curve.
as §1
DMD hMPs were put in the Myotube assay according to the workflow described in example 2.1. […]

[3] = comparative compounds, same assay as Table 3, NA: non active
[4] = 72 h, comparative compounds, same assay as Table 3, NA: non active, read-out: MA
[5] = 72 h, efficacy, MA = normalized Myotube Area, 3 days incubation, DMD or WT cell source not given
[6] = 72 h, myogenic activity, half-maximal generation of myotubes, 10 points dose-response 1.5 nM to 30 µM, 3 days, DMD or WT cell source not given
[7] = in combination with Givinostat at 0.3 µM
[8] = in combination with Prednisolone at 0.3 µM
[9] = DRC 4.5 nM to 10 µM in combination with Givinostat at 0.3 µM
[10] = DRC 4.5 nM to 10 µM in combination with Prednisolone at 0.3 µM

- EC50 [1, 3]: 1000 to 5000 nM
Structure (SMILES): CNC(=O)c1cc(Oc2ccc(NC(=O)Nc3cc(C(C)(C)C)nn3-c3ccc4ncccc4c3)c(F)c2)ccn1 [Rebastinib, reference compound]
- Pax7 (Pax7-positive cells): +

- EC50 [1, 3]: ≥ 5000 nM
Structure (SMILES): Cc1ccc(-n2nc(C(C)(C)C)cc2NC(=O)Nc2ccc(OCCN3CCOCC3)c3ccccc23)cc1 [BIRB-796]
- Emax [1, 4]: ≥ 75%
- Pax7 (Pax7-positive cells): ++

- EC50 [1, 3]: ≥ 5000 nM
Structure (SMILES): CNC(=O)c1cc(Oc2ccc(NC(=O)Nc3ccc(Cl)c(C(F)(F)F)c3)cc2)ccn1 [Sorafenib]
- Emax [1, 4]: 25 to 50%
- Pax7 (Pax7-positive cells): ++

- EC50 [1, 6]: < 500 nM
Structure (SMILES): CSc1cc(Oc2ccnc3[nH]c(=O)cnc23)ccc1NC(=O)Nc1cc(C(C)(C)C)nn1-c1cccc(F)c1 [(bw), 1-(3-(tert-butyl)-1-(3-fluorophenyl)-1H-pyrazol-5-yl)-3-(2-(methylthio)-4-((3-oxo-3,4-dihydropyrido[2,3-b]pyrazin-8-yl)oxy)phenyl)urea]
- Emax [1, 5]: ≥ 75%
- satellite cell pool (Pax7 positive cells; compound alone, DRC 4.5 nM to 10 µM): decrease of satellite cell pool which is only seen at high concentration
- satellite cell population (Pax7 positive cells; [7]): the decrease of satellite cell pool which is only seen at high concentration of treatment with compound bw alone is slightly diminished
- satellite cell population (Pax7 positive cells; [8]): the decrease of satellite cell pool which is only seen at high concentration of treatment with compound bw alone is slightly diminished
- total myotube surface [2, 9]: increased the total myotube surface
- total myotube surface [2, 10]: increased the total myotube surface
- potency [2, 7]: improved
- potency [2, 8]: slightly decreased

- EC50 [1, 3]: 500 to 1000 nM
Structure (SMILES): CC(C)(C)c1cc(NC(=O)Nc2ccc(Oc3ccnc4[nH]c(=O)cnc34)cc2F)n(-c2ccccc2)n1 [CCT196969, reference compound]
- MA [1, 3]: ++ (++: 50% ≤ MA <75%)
- Pax7 (Pax7-positive cells): +

- EC50 [1, 6]: 1000 to 5000 nM
Structure (SMILES): CC(C)(C)c1cc(NC(=O)Nc2ccc(Oc3ccnc4[nH]c(=O)cnc34)cc2F)sn1 [(q), 1-(3-(tert-butyl)isothiazol-5-yl)-3-(2-fluoro-4-((3-oxo-3,4-dihydropyrido[2,3-b]pyrazin-8-yl)oxy)phenyl)urea]
- Emax [1, 5]: 50 to 75%
- satellite cell population (Pax7 positive cells; [7]): maintenance of the satellite cells in all conditions
- satellite cell population (Pax7 positive cells; [8]): maintenance of the satellite cells in all conditions
- total myotube surface [2, 9]: strongly increased
- total myotube surface [2, 10]: strongly increased
- improvement of potency [2, 7]: 1.4 fold
- improvement of potency [2, 8]: 5 fold

- EC50 [1, 6]: 1000 to 5000 nM
Structure (SMILES): CC(C)n1nc(C(C)(C)C)cc1NC(=O)Nc1ccc(Oc2ccnc3[nH]c(=O)cnc23)cc1F [(i), 1-(3-(tert-butyl)-1-isopropyl-1H-pyrazol-5-yl)-3-(2-fluoro-4-((3-oxo-3,4-dihydropyrido[2,3-b]pyrazin-8-yl)oxy)phenyl)urea]
- myotube surface ([1]; DMD hMP, 10 increasing concentrations 1.5 nM to 30 µM, 3 days (figure 2)): dose-dependent increase of myotube surface
- Emax [1, 5]: 50 to 75%
- percentage of Pax7-positive cells (Pax7-positive cells; DMD hMP, 10 increasing concentrations 1.5 nM to 30 µM, 3 days (figure 3)): dose-dependent increase percentage of Pax7-positive cells
